Results taken from patent publication US20260317324A1, “BIFUNCTIONAL COMPOUNDS FOR DEGRADING BRAF VIA UBIQUITIN PROTEOSOME PATHWAY” (Nurix Therapeutics, Inc., priority 2023, published 2026).

Experiments:
Type in all cases: cell-based
BRAF V600E = molecular target: T1, BRAF V600E (Homo sapiens, UniProt P15056, V600E); assay: BRAF HiBiT degradation assay, C-terminal HiBiT-tagged BRAF V600E A375 cells (clone 1F10), Nano-Glo HiBiT Lytic assay; details: for Dmax: A-375
T1 construct: endogenous C-terminal HiBiT fusion tag on BRAF V600E allele; endogenous in cells; host or cells: A375 clone 1F10 (CRISPR-Cas9 knock-in of the HiBiT tag; parental A375 from ATCC)
T1 sequence (P15056 whole entry V600E, the tested form may be a part): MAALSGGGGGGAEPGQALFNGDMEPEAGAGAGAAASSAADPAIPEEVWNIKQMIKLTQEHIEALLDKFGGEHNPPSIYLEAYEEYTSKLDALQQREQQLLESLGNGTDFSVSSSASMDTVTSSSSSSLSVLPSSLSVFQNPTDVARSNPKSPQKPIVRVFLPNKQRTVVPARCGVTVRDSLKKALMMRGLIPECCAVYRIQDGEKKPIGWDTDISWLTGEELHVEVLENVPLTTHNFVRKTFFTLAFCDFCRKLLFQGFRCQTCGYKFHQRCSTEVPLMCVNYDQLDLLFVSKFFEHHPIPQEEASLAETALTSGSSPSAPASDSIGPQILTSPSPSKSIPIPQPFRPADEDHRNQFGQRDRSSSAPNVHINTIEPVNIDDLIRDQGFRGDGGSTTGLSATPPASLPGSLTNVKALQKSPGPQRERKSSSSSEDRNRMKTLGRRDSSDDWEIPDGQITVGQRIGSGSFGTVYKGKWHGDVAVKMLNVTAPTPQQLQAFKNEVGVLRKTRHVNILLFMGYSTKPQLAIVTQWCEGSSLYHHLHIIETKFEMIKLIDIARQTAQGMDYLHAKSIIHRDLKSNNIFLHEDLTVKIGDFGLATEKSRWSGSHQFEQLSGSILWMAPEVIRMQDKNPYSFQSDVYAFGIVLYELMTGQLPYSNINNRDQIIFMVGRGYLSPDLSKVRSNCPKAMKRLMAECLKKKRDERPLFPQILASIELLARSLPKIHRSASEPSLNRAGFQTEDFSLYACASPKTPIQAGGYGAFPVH
Outline: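 Endogenous BRAF V600E-HiBiT A375 (1F10), 10,000 cells/well, 24 h preculture; cpd 11-pt, 1 μM–0.01 nM half-log, n=2, 0.2% DMSO; HiBiT lytic detection 10 min RT; DC50 = fitted conc at Y=50; Obs. Dmax vs DMSO.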

BRAF G466V = molecular target: T2, BRAF G466V (Homo sapiens, UniProt P15056, G466V); assay: BRAF HiBiT degradation assay, C-terminal HiBiT-tagged BRAF G466V overexpressed in HCT-116 BRAF−/− cells (clone 8), Nano-Glo HiBiT Lytic assay
T2 construct: Horizon Discovery (HCT-116 BRAF−/− cells); host or cells: HCT-116 BRAF−/− cells, clone 8, lentiviral transduction
T2 sequence (P15056 whole entry G466V): as the sequence (P15056 whole entry V600E, the tested form may be a part) above, with G466V, E600V counted along it
Outline: (§1)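 Luminescence from the lytic HiBiT reagent, read after 10 min at room temperature, measured tagged BRAF remaining in lentivirally transduced HCT-116 BRAF−/− cells. Compounds were tested from 1 μM to 0.01 nM in half-log steps at 0.2% DMSO. DC50 values were fitted at 50% remaining.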

BRAF G469A = molecular target: T3, BRAF G469A (Homo sapiens, UniProt P15056, G469A); assay: BRAF HiBiT degradation assay, C-terminal HiBiT-tagged BRAF G469A overexpressed in HCT-116 BRAF−/− cells (clone 34), Nano-Glo HiBiT Lytic assay
T3 construct: Horizon Discovery (HCT-116 BRAF−/− cells); host or cells: HCT-116 BRAF−/− cells, clone 34, lentiviral transduction
T3 sequence (P15056 whole entry G469A): as the sequence (P15056 whole entry V600E, the tested form may be a part) above, with G469A, E600V counted along it
Outline: as §1

BRAF D594G = molecular target: T4, BRAF D594G (Homo sapiens, UniProt P15056, D594G); assay: BRAF HiBiT degradation assay, C-terminal HiBiT-tagged BRAF D594G overexpressed in HCT-116 BRAF−/− cells (clone 63), Nano-Glo HiBiT Lytic assay
T4 construct: Horizon Discovery (HCT-116 BRAF−/− cells); host or cells: HCT-116 BRAF−/− cells, clone 63, lentiviral transduction
T4 sequence (P15056 whole entry D594G): as the sequence (P15056 whole entry V600E, the tested form may be a part) above, with D594G, E600V counted along it
Outline: as §1

[1] = A375 (BRAF V600E, Class 1), DC50 at 50% degradation
[2] = A375 (BRAF V600E, Class 1), observed Dmax, % protein degraded relative to DMSO control
[3] = BRAF G466V (Class 3), HCT-116 BRAF−/− cells, DC50 at 50% degradation
[4] = BRAF G466V (Class 3), HCT-116 BRAF−/− cells, observed Dmax relative to DMSO control
[5] = BRAF G469A (Class 2), HCT-116 BRAF−/− cells, DC50 at 50% degradation
[6] = BRAF G469A (Class 2), HCT-116 BRAF−/− cells, observed Dmax relative to DMSO control
[7] = BRAF D594G (Class 3), HCT-116 BRAF−/− cells, DC50 at 50% degradation
[8] = BRAF D594G (Class 3), HCT-116 BRAF−/− cells, observed Dmax relative to DMSO control
[9] = A375 (BRAF V600E), DC50 at 50%: fitted conc. at Y=50
[10] = A375 (BRAF V600E), percentage protein degraded at maximal compound effect relative to DMSO
[11] = BRAF G466V, DC50 at 50%: fitted conc. at Y=50
[12] = HCT-116, BRAF G466V, percentage protein degraded at maximal compound effect relative to DMSO
[13] = Class 2, BRAF G469A, DC50 at 50%: fitted conc. at Y=50
[14] = HCT-116, Class 2, BRAF G469A, percentage protein degraded at maximal compound effect relative to DMSO
[15] = BRAF D594G, DC50 at 50%: fitted conc. at Y=50
[16] = HCT-116, BRAF D594G, percentage protein degraded at maximal compound effect relative to DMSO

Structure (SMILES)	DC50 (BRAF V600E; [1]) [nM]	Dmax (BRAF V600E; [2]) [%]	DC50 (BRAF G466V; [3]) [nM]	Dmax (BRAF G466V; [4]) [%]	DC50 (BRAF G469A; [5]) [nM]	Dmax (BRAF G469A; [6]) [%]	DC50 (BRAF D594G; [7]) [nM]	Dmax (BRAF D594G; [8]) [%]	DC50 (BRAF V600E; [9]) [nM]	Dmax (BRAF V600E; [10]) [%]	DC50 (BRAF G466V; [11]) [nM]	Dmax (BRAF G466V; [12]) [%]	DC50 (BRAF G469A; [13]) [nM]	Dmax (BRAF G469A; [14]) [%]	DC50 (BRAF D594G; [15]) [nM]	Dmax (BRAF D594G; [16]) [%]
CCCS(=O)(=O)Nc1cccc(-c2nc(C)sc2-c2ccnc(Nc3ccc(N4CCN(CC5CCN(c6ccc(C7CCC(=O)NC7=O)cn6)CC5)CC4)cn3)n2)c1F (racemic) [Compound 62, Rac-N-[3-(5-{2-[(5-{4-[(1-{5-[(3R)-2,6-dioxopiperidin-3-yl]pyridin-2-yl}piperidin-4-yl)methyl]piperazin-1-yl}pyridin-2-yl)amino]pyrimidin-4-yl}-2-methyl-1,3-thiazol-4-yl)-2-fluorophenyl]propane-1-sulfonamide]	–	–	–	–	–	–	–	–	< 10	> 70	10 to 50	30 to 70	< 10	30 to 70	> 500	30 to 70
CCCS(=O)(=O)Nc1cccc(-c2nc(CCC3CCN(C(=O)C4CCN(C(=O)C5CCN(c6ccc(C7CCC(=O)NC7=O)cn6)CC5)CC4)CC3)sc2-c2ccnc(N)n2)c1F (racemic) [Compound 205, Rac-N-{3-[5-(2-aminopyrimidin-4-yl)-2-(2-{1-[1-(1-{5-[(3R)-2,6-dioxopiperidin-3-yl]pyridin-2-yl}piperidine-4-carbonyl)piperidine-4-carbonyl]piperidin-4-yl}ethyl)-1,3-thiazol-4-yl]-2-fluorophenyl}propane-1-sulfonamide]	–	–	–	–	–	–	–	–	< 10	> 70	> 500	30 to 70	> 500	30 to 70	> 500	30 to 70
CCCS(=O)(=O)Nc1cccc(-c2nc(C(C)(C)C)sc2-c2ccnc(Nc3cnn(CC4CCN(C(=O)C[C@@H]5CCN(c6ccc(C7CCC(=O)NC7=O)cc6)C5)CC4)c3)n2)c1F (mixture of isomers) [Compound 112, N-(3-{2-tert-butyl-5-[2-({1-[(1-{2-[(3S)-1-{4-[(3RS)-2,6-dioxopiperidin-3-yl]phenyl}pyrrolidin-3-yl]acetyl}piperidin-4-yl)methyl]-1H-pyrazol-4-yl}amino)pyrimidin-4-yl]-1,3-thiazol-4-yl}-2-fluorophenyl)propane-1-sulfonamide]	–	–	–	–	–	–	–	–	< 10	30 to 70	> 500	< 30	> 500	< 30	> 500	30 to 70
CCN(C)S(=O)(=O)Nc1cccc(-c2nc(C)sc2-c2ccnc(Nc3ccc(N4CCN(C(=O)C5CCN(c6ccc(C7CCC(=O)NC7=O)cn6)CC5)CC4)cn3)n2)c1F (racemic) [Compound 40, Rac-(3S)-3-[6-(4-{4-[6-({4-[4-(3-{[ethyl(methyl)sulfamoyl]amino}-2-fluorophenyl)-2-methyl-1,3-thiazol-5-yl]pyrimidin-2-yl}amino)pyridin-3-yl]piperazine-1-carbonyl}piperidin-1-yl)pyridin-3-yl]piperidine-2,6-dione]	–	–	–	–	–	–	–	–	< 10	> 70	> 500	30 to 70	10 to 50	30 to 70	> 500	30 to 70
CCCS(=O)(=O)Nc1cccc(-c2nc(C3CCC4(CC3)CCN(CC3CCN(c5ccc(C6CCC(=O)NC6=O)cn5)CC3)CC4)sc2-c2ccnc(N)n2)c1F (racemic) [Compound 260, Rac-N-{3-[5-(2-aminopyrimidin-4-yl)-2-{3-[(1-{5-[(3R)-2,6-dioxopiperidin-3-yl]pyridin-2-yl}piperidin-4-yl)methyl]-3-azaspiro[5.5]undecan-9-yl}-1,3-thiazol-4-yl]-2-fluorophenyl}propane-1-sulfonamide]	10 to 50	30 to 70	> 500	< 30	> 500	< 30	> 500	< 30	–	–	–	–	–	–	–	–
CCCS(=O)(=O)Nc1cccc(-c2cn(C3CCN(C(=O)C4(C)CCN(C(=O)C5CCN(c6ccc(C7CCC(=O)NC7=O)cn6)CC5)CC4)CC3)nc2-c2ccncc2)c1F (racemic) [Compound 8, Rac-N-[3-(1-{1-[1-(1-{5-[(3R)-2,6-dioxopiperidin-3-yl]pyridin-2-yl}piperidine-4-carbonyl)-4-methylpiperidine-4-carbonyl]piperidin-4-yl}-3-(pyridin-4-yl)-1H-pyrazol-4-yl)-2-fluorophenyl]propane-1-sulfonamide]	–	–	–	–	–	–	–	–	10 to 50	> 70	> 500	30 to 70	> 500	30 to 70	> 500	30 to 70

The next lines start with the values.

DC50 (BRAF V600E; [1]) [nM]	Dmax (BRAF V600E; [2]) [%]	DC50 (BRAF G466V; [3]) [nM]	Dmax (BRAF G466V; [4]) [%]	DC50 (BRAF G469A; [5]) [nM]	Dmax (BRAF G469A; [6]) [%]	DC50 (BRAF D594G; [7]) [nM]	Dmax (BRAF D594G; [8]) [%]	DC50 (BRAF V600E; [9]) [nM]	Dmax (BRAF V600E; [10]) [%]	DC50 (BRAF G466V; [11]) [nM]	Dmax (BRAF G466V; [12]) [%]	DC50 (BRAF G469A; [13]) [nM]	Dmax (BRAF G469A; [14]) [%]	DC50 (BRAF D594G; [15]) [nM]	Dmax (BRAF D594G; [16]) [%]	Structure (SMILES)
< 10	> 70	< 10	> 70	10 to 50	> 70	< 10	> 70	–	–	–	–	–	–	–	–	O=C1CCC(c2ccc(N3CCC(CN4CCN(c5ccc(-n6cc(-c7cc(Cl)cc(NS(=O)(=O)N8CC[C@@H](F)C8)c7F)c(-c7ccncc7)n6)c(F)c5)CC4)CC3)nc2)C(=O)N1 (mixture of isomers) [Compound 335, (3R)—N-{5-chloro-3-[1-(4-{4-[(1-{5-[(3RS)-2,6-dioxopiperidin-3-yl]pyridin-2-yl}piperidin-4-yl)methyl]piperazin-1-yl}-2-fluorophenyl)-3-(pyridin-4-yl)-1H-pyrazol-4-yl]-2-fluorophenyl}-3-fluoropyrrolidine-1-sulfonamide]
–	–	–	–	–	–	–	–	10 to 50	> 70	10 to 50	30 to 70	> 500	< 30	> 500	30 to 70	CCCS(=O)(=O)Nc1cccc(-c2cn(-c3ccc(N4CCN(CC5CCN(c6ccc([C@@H]7CCC(=O)NC7=O)cc6)CC5)CC4)nc3)nc2-c2ccncc2)c1F [Compound 4, N-{3-[1-(6-{4-[(1-{4-[(3S)-2,6-dioxopiperidin-3-yl]phenyl}piperidin-4-yl)methyl]piperazin-1-yl}pyridin-3-yl)-3-(pyridin-4-yl)-1H-pyrazol-4-yl]-2-fluorophenyl}propane-1-sulfonamide]
< 10	> 70	< 10	30 to 70	> 500	< 30	10 to 50	30 to 70	–	–	–	–	–	–	–	–	O=C1CCN(c2ccc(N3CCC(CN4CCN(c5ccc(-n6cc(-c7cc(Cl)cc(NS(=O)(=O)N8CC(F)C8)c7F)c(-c7ccncc7)n6)c(F)c5)CC4)CC3)cc2)C(=O)N1 [Compound 339, N-[5-chloro-3-(1-{4-[4-({1-[4-(2,4-dioxo-1,3-diazinan-1-yl)phenyl]piperidin-4-yl}methyl)piperazin-1-yl]-2-fluorophenyl}-3-(pyridin-4-yl)-1H-pyrazol-4-yl)-2-fluorophenyl]-3-fluoroazetidine-1-sulfonamide]
< 10	> 70	< 10	> 70	10 to 50	30 to 70	< 10	30 to 70	–	–	–	–	–	–	–	–	O=C1CCN(c2ccc(N3CCC(CN4CCN(c5ccc(-n6cc(-c7cc(Cl)cc(NS(=O)(=O)C8CCCC8)c7F)c(-c7ccncc7)n6)cc5)CC4)CC3)nc2)C(=O)N1 [Compound 388, N-[5-chloro-3-(1-{4-[4-({1-[5-(2,4-dioxo-1,3-diazinan-1-yl)pyridin-2-yl]piperidin-4-yl}methyl)piperazin-1-yl]phenyl}-3-(pyridin-4-yl)-1H-pyrazol-4-yl)-2-fluorophenyl]cyclopentanesulfonamide]
